Laboratory results as given in patent publication EP4603105A1, “PHARMACEUTICAL COMPOSITION CONTAINING CYCLIC COMPOUND HAVING SELECTIVE KRAS INHIBITORY EFFECT AGAINST HRAS AND NRAS” (CHUGAI SEIYAKU KABUSHIKI KAISHA, priority 2022, dated 2024).
pIC50: −log10 of the molar value.

How the values were obtained:
[1] = test system: human lung cancer strain NCI-H441; assay type: cell-based
In short: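 Readout: […] after the ATP-based reagent. Compound: serial dilutions in dimethyl sulfoxide.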

HRAS wild-type protein = HRAS wild-type protein (Homo sapiens, UniProt P01112); assay: Binding to HRAS by surface plasmon resonance (SPR), KD and KD ratio to KRAS; conditions: ratio of the KD value with respect to HRAS wild-type protein to the KD value with respect to KRAS
In short: (§1)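 GDP-bound biotin-Avi RAS captured at ~100–300 RU, 30°C, pH 7.4 HBS containing 10 µM GDP, 10 mM MgCl2, 1 mM DTT, 0.01% Tween 20 and 4% DMSO. KD by 1:1 fitting.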

[2] = target: GDP-bound NRAS wild-type protein (Homo sapiens, UniProt P01111); assay: Binding to NRAS by surface plasmon resonance (SPR), KD and KD ratio to KRAS; conditions: ratio of the KD value with respect to GDP-bound NRAS wild-type protein to the KD value with respect to KRAS
In short: as §1

Chain of HRAS wild-type protein (P01112 whole entry): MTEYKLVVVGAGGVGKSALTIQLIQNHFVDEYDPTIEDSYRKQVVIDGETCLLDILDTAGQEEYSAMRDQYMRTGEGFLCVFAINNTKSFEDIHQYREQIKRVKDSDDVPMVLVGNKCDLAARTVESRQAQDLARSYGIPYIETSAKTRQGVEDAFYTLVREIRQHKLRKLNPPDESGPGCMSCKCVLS
Chain of GDP-bound NRAS wild-type protein (P01111 whole entry): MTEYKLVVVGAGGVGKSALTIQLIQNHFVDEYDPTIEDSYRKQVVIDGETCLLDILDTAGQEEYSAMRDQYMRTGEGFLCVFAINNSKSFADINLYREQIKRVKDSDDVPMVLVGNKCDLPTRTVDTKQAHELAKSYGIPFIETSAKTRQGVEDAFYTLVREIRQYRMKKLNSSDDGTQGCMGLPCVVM

Row | Compound | pIC50 [1] | HRAS /KRAS (HRAS wild-type protein) | NRAS /KRAS [2]
1 | CCO[C@@H]1C[C@H]2C(=O)NC3(CC(C)(C)C3)C(=O)N(C)[C@@H](C(CC)CC)C(=O)N(C)[C@H](C(=O)N3CCCC3)CC(=O)N(C)[C@@H](C)C(=O)N[C@@H]([C@@H](C)CC)C(=O)N(C)CC(=O)N(C)[C@H]3C/C=C\CCN(C3=O)[C@@H](Cc3ccc(C)cc3)C(=O)N(C)CC(=O)N[C@@H](CCc3ccc(C(F)(F)F)c(Cl)c3)C(=O)N2C1 [PP2152] | 7.53 | A (a compound having 10 or more and less than 20 is denoted as A) | AA (a compound having 20 or more is denoted as AA)
2 | CCO[C@@H]1C[C@H]2C(=O)NC3(CC(C)(C)C3)C(=O)N(C)[C@@H](C(CC)CC)C(=O)N(C)[C@H](C(=O)N(C)C)CC(=O)N(C)[C@@H](CC)C(=O)N[C@@H]([C@@H](C)CC)C(=O)N(C)CC(=O)N(C)[C@H]3C/C=C\CCN(C3=O)[C@@H](Cc3ccc(C)cc3)C(=O)N(C)CC(=O)N[C@@H](CCc3ccc(C(F)(F)F)c(Cl)c3)C(=O)N2C1 [PP2154] | 7.75 | A (a compound having 10 or more and less than 20 is denoted as A) | A (a compound having 10 or more and less than 20 is denoted as A)
3 | CCO[C@@H]1C[C@H]2C(=O)NC3(CC(C)(C)C3)C(=O)N(C)[C@@H](C(CC)CC)C(=O)N(C)[C@H](C(=O)N(C)C)CC(=O)N(C)[C@@H](CC3CC3)C(=O)N[C@@H]([C@@H](C)CC)C(=O)N(C)CC(=O)N(C)[C@H]3C/C=C\CCN(C3=O)[C@@H](Cc3ccc(C(F)(F)F)cc3)C(=O)N(C)CC(=O)N[C@@H](CCc3ccc(C(F)(F)F)c(OC)c3)C(=O)N2C1 [PP2155] | 7.97 | B (a compound having 3 or more and less than 10 is denoted as B) | A (a compound having 10 or more and less than 20 is denoted as A)
4 | CCO[C@@H]1C[C@H]2C(=O)NC3(CC(C)(C)C3)C(=O)N(C)[C@@H](C(CC)CC)C(=O)N(C)[C@H](C(=O)N(C)C)CC(=O)N(C)[C@@H](CC3CCC3)C(=O)N[C@@H]([C@@H](C)CC)C(=O)N(C)CC(=O)N(C)[C@H]3C/C=C\CCN(C3=O)[C@@H](Cc3ccc(C)cc3)C(=O)N(C)CC(=O)N[C@@H](CCc3ccc(C(F)(F)F)c(Cl)c3)C(=O)N2C1 [PP2156] | 7.69 | A (a compound having 10 or more and less than 20 is denoted as A) | AA (a compound having 20 or more is denoted as AA)
5 | CCO[C@@H]1C[C@H]2C(=O)NC3(CC(C)(C)C3)C(=O)N(C)[C@@H](C(CC)CC)C(=O)N(C)[C@H](C(=O)N(C)C)CC(=O)N(C)[C@@H](COC)C(=O)N[C@@H]([C@@H](C)CC)C(=O)N(C)CC(=O)N(C)[C@H]3C/C=C\CCN(C3=O)[C@@H](Cc3ccc(C(F)(F)F)cc3)C(=O)N(C)CC(=O)N[C@@H](CCc3ccc(C(F)(F)F)c(OC)c3)C(=O)N2C1 [PP2157] | 8.23 | A (a compound having 10 or more and less than 20 is denoted as A) | A (a compound having 10 or more and less than 20 is denoted as A)
6 | CCO[C@@H]1C[C@H]2C(=O)NC3(CC(C)(C)C3)C(=O)N(C)[C@@H](C(CC)CC)C(=O)N(C)[C@H](C(=O)N3CCCC3)CC(=O)N(C)[C@@H](COC)C(=O)N[C@@H]([C@@H](C)CC)C(=O)N(C)CC(=O)N(C)[C@H]3C/C=C\CCN(C3=O)[C@@H](Cc3ccc(C(F)(F)F)cc3)C(=O)N(C)CC(=O)N[C@@H](CCc3ccc(C(F)(F)F)c(OC)c3)C(=O)N2C1 [PP2159] | 7.71 | A (a compound having 10 or more and less than 20 is denoted as A) | AA (a compound having 20 or more is denoted as AA)
7 | CCC[C@H]1C(=O)N[C@@H]([C@@H](C)CC)C(=O)N(C)CC(=O)N(C)[C@H]2C/C=C\CCN(C2=O)[C@@H](Cc2ccc(C(F)(F)F)cc2)C(=O)N(C)CC(=O)N[C@@H](CCc2ccc(C(F)(F)F)c(OC)c2)C(=O)N2C[C@H](OCC)C[C@H]2C(=O)NC2(CC(C)(C)C2)C(=O)N(C)[C@@H](C(CC)CC)C(=O)N(C)[C@H](C(=O)N(C)C)CC(=O)N1C [PP2160] | 8.27 | A (a compound having 10 or more and less than 20 is denoted as A) | A (a compound having 10 or more and less than 20 is denoted as A)
8 | CCO[C@@H]1C[C@H]2C(=O)NC3(CC(C)(C)C3)C(=O)N(C)[C@@H](C(CC)CC)C(=O)N(C)[C@H](C(=O)N(C)C)CC(=O)N(C)[C@@H](CC(C)C)C(=O)N[C@@H]([C@@H](C)CC)C(=O)N(C)CC(=O)N(C)[C@H]3C/C=C\CCN(C3=O)[C@@H](Cc3ccc(C(F)(F)F)cc3)C(=O)N(C)CC(=O)N[C@@H](CCc3ccc(C(F)(F)F)c(OC)c3)C(=O)N2C1 [PP2161] | 7.91 | A (a compound having 10 or more and less than 20 is denoted as A) | AA (a compound having 20 or more is denoted as AA)
9 | CCO[C@@H]1C[C@H]2C(=O)NC3(CC(C)(C)C3)C(=O)N(C)[C@@H](C(CC)CC)C(=O)N(C)[C@H](C(=O)N3CCCC3)CC(=O)N(C)[C@@H](C)C(=O)N[C@@H]([C@@H](C)CC)C(=O)N(C)CC(=O)N(C)[C@H]3C/C=C\CCN(C3=O)[C@@H](Cc3ccc(C(F)(F)F)cc3)C(=O)N(C)CC(=O)N[C@@H](CCc3ccc(C(F)(F)F)c(OC)c3)C(=O)N2C1 [PP2163] | 7.74 | A (a compound having 10 or more and less than 20 is denoted as A) | A (a compound having 10 or more and less than 20 is denoted as A)
10 | CCO[C@@H]1C[C@H]2C(=O)NC3(CC(C)(C)C3)C(=O)N(C)[C@@H](C(CC)CC)C(=O)N(C)[C@H](C(=O)N(C)C)CC(=O)N(C)[C@@H](CC3CCC3)C(=O)N[C@@H]([C@@H](C)CC)C(=O)N(C)CC(=O)N(C)[C@H]3C/C=C\CCN(C3=O)[C@@H](Cc3ccc(C(F)(F)F)cc3)C(=O)N(C)CC(=O)N[C@@H](CCc3ccc(C(F)(F)F)c(OC)c3)C(=O)N2C1 [PP2164] | 7.85 | A (a compound having 10 or more and less than 20 is denoted as A) | A (a compound having 10 or more and less than 20 is denoted as A)
11 | CCO[C@@H]1C[C@H]2C(=O)NC3(CC(C)(C)C3)C(=O)N(C)[C@@H](C(CC)CC)C(=O)N(C)[C@H](C(=O)N(C)C)CC(=O)N(C)[C@@H](C(C)C)C(=O)N[C@@H]([C@@H](C)CC)C(=O)N(C)CC(=O)N(C)[C@H]3C/C=C\CCN(C3=O)[C@@H](Cc3ccc(C(F)(F)F)cc3)C(=O)N(C)CC(=O)N[C@@H](CCc3ccc(C(F)(F)F)c(OC)c3)C(=O)N2C1 [PP2165] | 7.76 | A (a compound having 10 or more and less than 20 is denoted as A) | A (a compound having 10 or more and less than 20 is denoted as A)
12 | CCO[C@@H]1C[C@H]2C(=O)NC3(CC(C)(C)C3)C(=O)N(C)[C@@H](C(CC)CC)C(=O)N(C)[C@H](C(=O)N(C)C)CC(=O)N(C)[C@@H](CC3CC3)C(=O)N[C@@H]([C@@H](C)CC)C(=O)N(C)CC(=O)N(C)[C@H]3C/C=C\CCN(C3=O)[C@@H](Cc3ccc(C)cc3)C(=O)N(C)CC(=O)N[C@@H](CCc3ccc(C(F)(F)F)c(OC)c3)C(=O)N2C1 [PP2166] | 7.63 | A (a compound having 10 or more and less than 20 is denoted as A) | A (a compound having 10 or more and less than 20 is denoted as A)
13 | CCO[C@@H]1C[C@H]2C(=O)NC3(CC(C)(C)C3)C(=O)N(C)[C@@H](C(CC)CC)C(=O)N(C)[C@H](C(=O)N3CCCC3)CC(=O)N(C)[C@@H](COC)C(=O)N[C@@H]([C@@H](C)CC)C(=O)N(C)CC(=O)N(C)[C@H]3C/C=C\CCN(C3=O)[C@@H](Cc3ccc(C)cc3)C(=O)N(C)CC(=O)N[C@@H](CCc3ccc(C(F)(F)F)c(OC)c3)C(=O)N2C1 [PP2167] | 7.41 | A (a compound having 10 or more and less than 20 is denoted as A) | AA (a compound having 20 or more is denoted as AA)
14 | CCO[C@@H]1C[C@H]2C(=O)NC3(CC(C)(C)C3)C(=O)N(C)[C@@H](C(CC)CC)C(=O)N(C)[C@H](C(=O)N(C)C)CC(=O)N(C)[C@@H](CC(C)C)C(=O)N[C@@H]([C@@H](C)CC)C(=O)N(C)CC(=O)N(C)[C@H]3C/C=C\CCN(C3=O)[C@@H](Cc3ccc(C)cc3)C(=O)N(C)CC(=O)N[C@@H](CCc3ccc(C(F)(F)F)c(OC)c3)C(=O)N2C1 [PP2168] | 7.77 | A (a compound having 10 or more and less than 20 is denoted as A) | A (a compound having 10 or more and less than 20 is denoted as A)
15 | CCO[C@@H]1C[C@H]2C(=O)NC3(CC(C)(C)C3)C(=O)N(C)[C@@H](C(CC)CC)C(=O)N(C)[C@H](C(=O)N3CCCC3)CC(=O)N(C)[C@@H](C)C(=O)N[C@@H]([C@@H](C)CC)C(=O)N(C)CC(=O)N(C)[C@H]3C/C=C\CCN(C3=O)[C@@H](Cc3ccc(C)cc3)C(=O)N(C)CC(=O)N[C@@H](CCc3ccc(C(F)(F)F)c(OC)c3)C(=O)N2C1 [PP2169] | 7.21 | A (a compound having 10 or more and less than 20 is denoted as A) | AA (a compound having 20 or more is denoted as AA)
